Source: ChEMBL document CHEMBL5390201, “The Natural Alkaloid (-)-N-Hydroxyapiosporamide Suppresses Colorectal Tumor Progression as an NF-κB Pathway Inhibitor by Targeting the TAK1-TRAF6 Complex” (J Nat Prod, 2023)
Active and inactive are the calls of the source. No cut-off for these calls is given here.

Assays:
HT-29 [1] = assay: Induction of apoptosis in human HT-29 cells assessed as late apoptotic cells at 5 uM preincubated with Z-VAD-FMK for 1 hr followed by compound addition and measured after 24 hrs by Annexin V-FITC/PI staining based flow cytometric analysis (reference value: 7.01 %); assay type: functional
HT-29 [2] = assay: Cytotoxicity against human HT-29 cells assessed as decrease in cell viability incubated for 48 hrs by SRB assay; assay type: functional, cell-based; settings: HT-29, 48 h
HCT-116 [3] = assay: Induction of apoptosis in human HCT-116 cells assessed as late apoptotic cells at 5 uM preincubated with Z-VAD-FMK for 1 hr followed by compound addition and measured after 24 hrs by Annexin V-FITC/PI staining based flow cytometric analysis (reference value: 9.37 %); assay type: functional
Mus musculus [4] = assay: (§1) Anti-inflammatory activity in AOM/DSS-induced BALB/c mouse model inflammatory bowel disease assessed as reduction in tumor number at 5 to 10 mg/kg, ip pretreated with AOM for 7 days further replaced with DSS for 7 days and repeated for 2 times followed by every 2 days compound treatment for […] starting from day 50 and measured once a week; assay type: functional, organism-based; settings: dose 5-10 mg/kg, time 21.0 day
HCT-116 [5] = assay: Induction of cell cycle arrest in human HCT-116 cells assessed as decrease in CDK4 protein expression upto 10 uM incubated for 24 hrs by Western blot analysis; assay type: functional, cell-based
HCT-116 [6] = assay: Induction of autophagic cell death in human HCT-116 cells at 1 to 10 uM pretreated with 3-methyladenine for 1 hr followed by compound addition and measured after 24 hrs by SRB assay; assay type: functional, cell-based; settings: dose 1-10 µM
HT-29 [7] = assay: Induction of apoptosis in human HT-29 cells assessed as viable cells at 0.5 uM incubated for 24 hrs by Annexin V-FITC/PI staining based flow cytometric analysis (reference value: 93 %); assay type: functional; settings: read-out: Activity
Mus musculus [8] = assay: (§2) In vivo inhibition of NFkappaB activation in AOM/DSS-induced inflammatory bowel disease BALB/c mouse model assessed as inhibition of serum TNF-alpha production at 5 to 10 mg/kg, ip pretreated with AOM for 7 days further replaced with DSS for 7 days and repeated for 2 times followed by every 2 days compound treatment for […] starting from day 50 by ELISA; assay type: functional, organism-based; settings: dose 5-10 mg/kg, time 21.0 day
[9] = target: T1, Nuclear factor NF-kappa-B complex (Homo sapiens) (UniProt Q00653+P19838+Q04206); assay: Inhibition of TNF-alpha induced NFkappaB activation in human HCT-116 cells assessed as downregulation of E-selectin gene expression pretreated for 24 hrs followed by TNFalpha stimulation and measured after 2 hrs by quantitative RT-PCR analysis; assay type: cell-based; settings: dose 1-10 µM, time 26.0 hrs
T1 sequence (P19838 whole entry, looked up): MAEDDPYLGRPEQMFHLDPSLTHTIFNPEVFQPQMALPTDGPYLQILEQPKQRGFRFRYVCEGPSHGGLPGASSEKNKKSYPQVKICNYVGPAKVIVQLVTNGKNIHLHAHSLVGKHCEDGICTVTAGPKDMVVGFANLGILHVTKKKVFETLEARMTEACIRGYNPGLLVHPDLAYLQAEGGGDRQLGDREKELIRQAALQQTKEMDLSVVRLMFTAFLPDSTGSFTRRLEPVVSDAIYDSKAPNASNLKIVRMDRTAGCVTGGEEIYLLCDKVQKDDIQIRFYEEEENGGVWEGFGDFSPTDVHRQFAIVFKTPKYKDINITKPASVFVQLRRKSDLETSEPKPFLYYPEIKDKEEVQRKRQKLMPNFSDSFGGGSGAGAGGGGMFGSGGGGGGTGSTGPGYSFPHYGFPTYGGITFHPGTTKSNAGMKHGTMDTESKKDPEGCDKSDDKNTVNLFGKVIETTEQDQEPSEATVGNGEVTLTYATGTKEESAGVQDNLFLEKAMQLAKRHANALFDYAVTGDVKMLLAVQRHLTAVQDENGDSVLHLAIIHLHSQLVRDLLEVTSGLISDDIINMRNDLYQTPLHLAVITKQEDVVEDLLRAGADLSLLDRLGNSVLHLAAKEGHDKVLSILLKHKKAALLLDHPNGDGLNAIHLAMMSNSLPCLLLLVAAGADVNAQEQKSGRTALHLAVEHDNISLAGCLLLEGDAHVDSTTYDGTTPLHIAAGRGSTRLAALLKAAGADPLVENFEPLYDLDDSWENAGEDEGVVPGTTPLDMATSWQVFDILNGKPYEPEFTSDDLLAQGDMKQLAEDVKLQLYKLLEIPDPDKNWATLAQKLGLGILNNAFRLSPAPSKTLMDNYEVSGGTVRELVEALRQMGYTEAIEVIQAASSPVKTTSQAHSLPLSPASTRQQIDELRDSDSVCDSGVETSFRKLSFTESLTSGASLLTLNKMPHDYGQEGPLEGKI
T1 sequence (Q00653 whole entry, looked up): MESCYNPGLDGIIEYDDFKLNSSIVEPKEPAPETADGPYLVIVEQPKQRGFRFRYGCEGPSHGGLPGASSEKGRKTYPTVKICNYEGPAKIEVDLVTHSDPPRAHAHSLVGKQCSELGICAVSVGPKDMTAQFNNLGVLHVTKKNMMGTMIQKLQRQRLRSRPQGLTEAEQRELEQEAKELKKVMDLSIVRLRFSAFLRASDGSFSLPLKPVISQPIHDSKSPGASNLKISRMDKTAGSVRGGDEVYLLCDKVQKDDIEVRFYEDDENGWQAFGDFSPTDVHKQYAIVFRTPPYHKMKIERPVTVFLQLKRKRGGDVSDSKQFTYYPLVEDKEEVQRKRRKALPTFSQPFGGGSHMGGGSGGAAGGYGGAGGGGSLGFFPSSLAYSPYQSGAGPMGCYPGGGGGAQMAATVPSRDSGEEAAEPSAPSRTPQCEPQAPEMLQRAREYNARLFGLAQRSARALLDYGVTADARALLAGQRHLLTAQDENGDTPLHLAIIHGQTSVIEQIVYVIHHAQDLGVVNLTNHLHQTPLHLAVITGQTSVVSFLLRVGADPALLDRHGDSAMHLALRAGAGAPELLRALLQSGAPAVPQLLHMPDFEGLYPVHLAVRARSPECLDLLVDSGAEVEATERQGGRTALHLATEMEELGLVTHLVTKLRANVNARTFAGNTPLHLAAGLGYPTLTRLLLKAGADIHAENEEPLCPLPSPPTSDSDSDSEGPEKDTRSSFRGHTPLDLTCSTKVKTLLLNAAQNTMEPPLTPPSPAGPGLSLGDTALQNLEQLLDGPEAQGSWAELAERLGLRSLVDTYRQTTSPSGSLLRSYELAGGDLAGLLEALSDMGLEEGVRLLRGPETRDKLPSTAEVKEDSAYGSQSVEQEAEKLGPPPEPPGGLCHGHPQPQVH
T1 sequence (Q04206 whole entry, looked up): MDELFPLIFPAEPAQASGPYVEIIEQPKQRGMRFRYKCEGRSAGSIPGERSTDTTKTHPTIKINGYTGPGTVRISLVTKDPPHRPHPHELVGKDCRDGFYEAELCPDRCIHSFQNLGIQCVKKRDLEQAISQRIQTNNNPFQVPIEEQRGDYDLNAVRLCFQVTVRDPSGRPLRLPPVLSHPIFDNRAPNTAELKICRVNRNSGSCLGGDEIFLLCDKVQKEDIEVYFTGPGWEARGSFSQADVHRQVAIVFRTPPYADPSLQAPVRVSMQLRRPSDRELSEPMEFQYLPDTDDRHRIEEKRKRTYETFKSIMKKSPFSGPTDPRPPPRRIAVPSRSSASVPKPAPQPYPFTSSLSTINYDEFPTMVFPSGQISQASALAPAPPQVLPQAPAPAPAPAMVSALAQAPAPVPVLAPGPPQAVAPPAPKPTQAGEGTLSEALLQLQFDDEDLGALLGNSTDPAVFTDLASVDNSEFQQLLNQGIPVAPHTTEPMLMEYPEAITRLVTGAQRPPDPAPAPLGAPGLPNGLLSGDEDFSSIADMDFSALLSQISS

RAW264.7 = assay: Inhibition of LPS-induced NFkappaB activation in mouse RAW264.7 cells assessed as inhibition of IkappaBalpha phosphorylation preincubated for 24 hrs followed by LPS stimulation for 3 hrs by Western blot analysis; assay type: cell-based; settings: dose 1-10 µM, time 27.0 hrs
HT-29 [10] = assay: Induction of apoptosis in human HT-29 cells assessed as necrotic cells at 0.5 uM incubated for 24 hrs by Annexin V-FITC/PI staining based flow cytometric analysis (reference value: 0.14 %); assay type: functional
[11] = target: T1, Nuclear factor NF-kappa-B complex (Homo sapiens); assay: Inhibition of TNF-alpha induced NFkappaB activation in human HCT-116 cells assessed as inhibition of p65 phosphorylation at 1 to 10 uM pretreated for 24 hrs followed by TNFalpha stimulation for 10 mins by Western blot analysis; assay type: cell-based; settings: dose 1-10 µM, time 1450.0 min
[12] = target: T1, Nuclear factor NF-kappa-B complex (Homo sapiens); assay: Inhibition of TNF-alpha induced NFkappaB activation in human HCT-116 cells assessed as downregulation of A20 gene expression pretreated for 24 hrs followed by TNFalpha stimulation and measured after 2 hrs by quantitative RT-PCR analysis; assay type: cell-based; settings: dose 1-10 µM, time 26.0 hrs
HCT-116 [13] = assay: Induction of autophagic cell death in human HCT-116 cells at 1 to 10 uM pretreated with chloroquine for 1 hr followed by compound addition and measured after 24 hrs by SRB assay; assay type: functional, cell-based; settings: dose 1-10 µM
Mus musculus [14] = assay: as §2, with “IL-8” for “TNF-alpha”; assay type: functional, organism-based; settings: dose 5-10 mg/kg, time 21.0 day
HT-29 [15] = assay: Induction of apoptosis in human HT-29 cells assessed as early apoptotic cells at 1 uM incubated for 24 hrs by Annexin V-FITC/PI staining based flow cytometric analysis (reference value: 5.29 %); assay type: functional
HT-29 [16] = assay: Induction of autophagic flux in human HT-29 cells assessed as increase in LC3I to LC3II conversion preincubated with 3-methyladenine for 1 hr followed by compound addition and measured after 24 hrs by Western blot analysis; assay type: functional, cell-based
HT-29 [17] = assay: Induction of autophagic cell death in human HT-29 cells at 1 to 10 uM pretreated with chloroquine for 1 hr followed by compound addition and measured after 24 hrs by SRB assay; assay type: functional, cell-based; settings: dose 1-10 µM
HCT-116 [18] = assay: Induction of cell cycle arrest in human HCT-116 cells assessed as accumulation of cells at S phase at 5 uM by RNase/PI staining based flow cytometry analysis (reference value: 43.77 %); assay type: functional
HT-29 [19] = assay: Induction of apoptosis in human HT-29 cells assessed as inhibition of caspase 9 protein expression measured for 24 hrs by Western blot analysis; assay type: functional, cell-based; settings: dose 0-10 µM
Mus musculus [20] = assay: as §1, with “colon length” for “tumor number”; assay type: functional, organism-based; settings: dose 5-10 mg/kg, time 21.0 day
HT-29 [21] = assay: Induction of cell cycle arrest in human HT-29 cells assessed as accumulation of cells at G2/M phase at 1 uM by RNase/PI staining based flow cytometry analysis (reference value: 9.93 %); assay type: functional
[22] = target: T1, Nuclear factor NF-kappa-B complex (Homo sapiens); assay: Inhibition of TNF-alpha induced NFkappaB activation in human HCT-116 cells assessed as inhibition of IkappaBalpha degradation at 1 to 10 uM pretreated for 24 hrs followed by TNFalpha stimulation for 10 mins by Western blot analysis; assay type: cell-based; settings: dose 1-10 µM, time 1450.0 min
Mus musculus [23] = assay: In vivo inhibition of NFkappaB activation in LPS-induced BALB/c mouse model of endotoxin shock assessed as inhibition of IL6 mRNA expression in liver at 5 mg/kg, ip pretreated for 4 hrs followed by LPS stimulation for 1 hr by RT-PCR analysis; assay type: functional, organism-based; settings: time 5.0 hrs
HCT-116 [24] = assay: Induction of cell cycle arrest in human HCT-116 cells assessed as accumulation of cells at G0/G1 phase at 10 uM by RNase/PI staining based flow cytometry analysis (reference value: 33.08 %); assay type: functional
Mus musculus [25] = assay: In vivo inhibition of NFkappaB activation in LPS-induced BALB/c mouse model of endotoxin shock assessed as inhibition of TNF-alpha mRNA expression in liver at 5 mg/kg, ip pretreated for 4 hrs followed by LPS stimulation for 1 hr by RT-PCR analysis; assay type: functional, organism-based; settings: time 5.0 hrs
HCT-116 [26] = assay: Induction of cell cycle arrest in human HCT-116 cells assessed as decrease in cyclin B protein expression upto 10 uM incubated for 24 hrs by Western blot analysis; assay type: functional, cell-based
[27] = target: T1, Nuclear factor NF-kappa-B complex (Homo sapiens); assay: Inhibition of TNF-alpha induced NFkappaB activation in human HT-29 cells assessed as inhibition of IkappaBalpha phosphorylation at 1 to 10 uM pretreated for 24 hrs followed by TNFalpha stimulation for 10 mins by Western blot analysis; assay type: cell-based; settings: dose 1-10 µM, time 1450.0 min
Mus musculus [28] = assay: In vivo inhibition of NFkappaB activation in athymic BALB/c mouse xenografted with human HCT-116 cells assessed as reduction in E-selectin gene expression in tumor at 15 mg/kg, ip administered every other day and measured after 14 days by qRT-PCR analysis; assay type: functional, organism-based; settings: time 14.0 day

C[C@@H]1CC[C@H]2[C@H](C(=O)c3c(O)c([C@@]4(O)CC[C@@H](O)[C@H]5O[C@H]54)cn(O)c3=O)[C@H](C)C=C[C@@H]2C1
Activity (HT-29 [1]): 17.2%
IC50 (HT-29 [2]): 570 nM
Activity (HCT-116 [3]): 53.3%
Activity (Mus musculus [4]): Active
Activity (HCT-116 [5]): Active
Activity (HCT-116 [6]): inactive
viability at 0.5 µM (HT-29 [7]): 55.5%
inhibition (Mus musculus [8]): Active
inhibition [9]: Dose-Dependent Effect
inhibition (RAW264.7): Dose-Dependent Effect
Activity (HT-29 [10]): 0.2%
inhibition [11]: Active
inhibition [12]: Dose-Dependent Effect
Activity (HCT-116 [13]): inactive
inhibition (Mus musculus [14]): Active
Activity (HT-29 [15]): 47.4%
Activity (HT-29 [16]): Active
Activity (HT-29 [17]): inactive
Activity (HCT-116 [18]): 40.03%
Activity (HT-29 [19]): Dose-Dependent Effect
Activity (Mus musculus [20]): Active
Activity (HT-29 [21]): 7.08%
inhibition [22]: Active
inhibition (Mus musculus [23]): Active
Activity (HCT-116 [24]): 46.75%
inhibition (Mus musculus [25]): Active
Activity (HCT-116 [26]): Active
inhibition [27]: Active
inhibition (Mus musculus [28]): Active
